Results on 86 compounds are retold here after PubChem BioAssay AID463199 (Broad Institute, 2010).

Activity calls are given as the source filed them.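 Rule for the calls: active = AC50, the dose giving half-maximal effect, exceeds a fixed cutoff for a compound that rescues yeast growth under heat; inactive = the rest, inconclusive results apart.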 Where only a bound is given, the exact number is not on record here.

This experiment concerns S. cerevisiae Burl-1 ts mutant growth, BacTiter-Glo, 38.5C 24 h. Description: growth induction of Burl-1 ts yeast mutant, dose response, counter-screen for SUMOylation pathway inhibitor project, whole organism, S. cerevisiae, luminescence (AID 463199). A general note: Counterscreens check selectivity or assay interference.
`Cc1ccc(C)c(S(=O)(=O)n2cnc3ccccc32)c1`: the AC50 is > 42 µM (inactive).

In the case of `CCCN1C(=O)c2[nH]nc(-c3cc(Cl)c(C)cc3O)c2C1c1ccc(O)c(OC)c1` (stereo unspecified), the AC50 was > 42 µM (inactive).

Take `Cc1ccc(-c2nn(-c3ccccc3)cc2C(=O)N2CCN(c3ccccn3)CC2)cc1`: the AC50 is > 42 µM (inactive).

Regarding `COc1ccccc1C1NC(=O)CS1` (stereo unspecified), the AC50 is > 42 µM (inactive).

`O=C(CCc1ccccc1)NNC(=S)Nc1ccc(F)cc1`: the AC50 is > 42 µM (inactive).

In the case of `COc1ccc(Oc2c(C)oc3cc(OC(=O)N(C)C)ccc3c2=O)cc1`, the AC50 was > 42 µM (inactive).

With `CSc1ncc2ncn(C3OC(CO)C(O)C3O)c2n1` (stereo unspecified), the AC50 was > 42 µM (inactive).

Regarding `Cc1ccc(Nc2cc(C)nc3c(C)ccc([N+](=O)[O-])c23)cc1`, the AC50 is > 21 µM (inactive).

With `CCCCOC(=O)/C(=C/C=C/c1ccccc1)NC(=O)c1ccccc1`, the AC50 was > 42 µM (inactive).

For the compound `O=C(O)c1cc(S(=O)(=O)Nc2ccc(OCc3ccccc3)cc2)ccc1Br`, the AC50 is > 42 µM (inactive).

With `COc1ccc2c(c1)[C@H]1[C@H](CO2)[C@H](c2ccccc2)[C@]2(C)C(=O)Nc3ccc(Br)cc3C(=O)N12`, the AC50 is > 42 µM (inactive).

For the compound `CCOC(=O)c1ccc(NC(=O)CC2Sc3ncnn3C2=O)cc1` (stereo unspecified), the AC50 was > 42 µM (inactive).

As for `COc1ccccc1/C=C/C(=O)N1CCc2cc(OC)c(OC)cc2C1C` (stereo unspecified), the AC50 was > 42 µM (inactive).

On to `CCCNCC(O)COc1ccccc1C(=O)CCc1ccccc1` (stereo unspecified), for which the AC50 is > 42 µM (inactive).

In the case of `Cc1ccc(-c2noc(C3CCCN(S(=O)(=O)c4ccc5ccccc5c4)C3)n2)o1` (stereo unspecified), the AC50 is > 42 µM (inactive).

With `O=C(N/N=C/c1cccs1)c1cncc(Br)c1`, the AC50 is > 42 µM (inactive).

Take `Cc1ccc(C(=O)N/C(=C\c2cccs2)C(=O)NCc2ccncc2)cc1`: the AC50 is > 42 µM (inactive).

With `Cc1cc(C)cc(N2C(=O)CC(Sc3ncn[nH]3)C2=O)c1` (stereo unspecified), the AC50 was > 42 µM (inactive).

On to `COc1ccc(-c2nnc(-c3cc4c(ccc5ccccc54)oc3=O)o2)cc1`, for which the AC50 is > 42 µM (inactive).

Consider `CC(C)C(=O)Nc1cccc(-c2nc3ncccc3o2)c1`, for which the AC50 is > 42 µM (inactive).

`CCn1c(CSCc2ccc(F)cc2)nnc1SCC(=O)NCc1ccccc1`: the AC50 is > 42 µM (inactive).

As for `COc1ccc(-n2c3c(cc(C(=O)NCC(=O)c4ccccc4)c2=O)C(=O)CC(C)(C)C3)cc1`, the AC50 was > 42 µM (inactive).

For `O=C1CCC(C(=O)N2CCN(c3ccccc3)CC2)CN1CC1CCCCC1` (stereo unspecified), the AC50 is > 42 µM (inactive).

Regarding `Cc1ccc(NC(=O)Cn2sc3nc(C)cc(C)c3c2=O)c(Cl)c1`, the AC50 is > 42 µM (inactive).

On to `NNC(=O)c1[nH]c2ccccc2c1-c1ccccc1`, for which the AC50 was > 42 µM (inactive).

As for `COc1ccccc1N1CCN(CCN2C(=O)C3CCCCN3C2=O)CC1` (stereo unspecified), the AC50 is > 42 µM (inactive).

With `CNC(=O)Nc1cc(NC(=O)NC)cc(C(F)(F)F)c1`, the AC50 was > 42 µM (inactive).

Turning to `CCOC(=O)C1CCN(C(=O)c2ccc3c(c2)NC(=O)/C(=C/c2ccccc2)S3)CC1`, the AC50 is > 42 µM (inactive).

Take `Cc1cccc(N=Nc2ccc(N(C)C)cc2)c1`: the AC50 is > 42 µM (inactive).

For the compound `Cc1ccc(-n2c(-c3ccco3)nc3c(cnn3-c3ccc(C)cc3)c2=O)cc1`, the AC50 is > 42 µM (inactive).

With `Cc1cc([N+](=O)[O-])nn1CC(=O)NNC(=S)Nc1ccc([N+](=O)[O-])cc1`, the AC50 was > 21 µM (inactive).

Take `O=C(CCCc1nc(-c2ccc(Cl)cc2)no1)NC1CCCCC1`: the AC50 was > 42 µM (inactive).

`Cc1ccc(Oc2ccccc2NC(=O)C2=COCCO2)cc1`: the AC50 is > 42 µM (inactive).

Regarding `N=c1n(CCCOc2ccc(Br)cc2)c2ccccc2n1CC(N)=O`, the AC50 was > 42 µM (inactive).

Regarding `O=[N+]([O-])c1ccccc1CN1CC=C(c2ccc(F)cc2)CC1`, the AC50 is > 42 µM (inactive).

Consider `COC(=O)c1ccc(N2C(=O)CC(NCc3ccccc3)C2=O)cc1` (stereo unspecified), for which the AC50 was > 42 µM (inactive).

In the case of `CC(C)(c1ccccc1)c1ccc(OCCN2CCOCC2)cc1`, the AC50 is > 42 µM (inactive).

In the case of `Cc1nn(C)c(C)c1/C=N/NC(=O)C(C)(C)Oc1ccc(Cl)cc1`, the AC50 was > 42 µM (inactive).

For `CCOC(=O)c1sc2ncnc(N3CCN(c4ccc(OC)cc4)CC3)c2c1C`, the AC50 was > 42 µM (inactive).

As for `COCC(C)n1c(SCC(=O)NNC(=O)c2ccccc2)nc2ccccc2c1=O` (stereo unspecified), the AC50 is > 42 µM (inactive).

For `O=C(c1cc(Cl)c(=O)n(Cc2ccc(Cl)cc2)c1)N1CCOCC1`, the AC50 is > 42 µM (inactive).

On to `COc1ccc(/C=N/NC(=O)c2nnn(-c3nonc3N)c2-c2cccs2)cc1OC`, for which the AC50 was > 42 µM (inactive).

Consider `CCn1nccc1C(=O)Nc1ccccc1OC`, for which the AC50 was > 42 µM (inactive).

On to `Cc1nnc(NC(=O)c2ccc(-c3cccc(C(F)(F)F)c3)o2)s1`, for which the AC50 was > 42 µM (inactive).

Consider `O=S(=O)(Cc1cc(-c2ccccc2)no1)c1ccccc1`, for which the AC50 was > 42 µM (inactive).

On to `CNS(=O)(=O)c1cccc(C(=O)OCC(=O)Nc2ccc(OC)cc2[N+](=O)[O-])c1`, for which the AC50 is > 42 µM (inactive).

For `O=c1oc2cc(S(=O)(=O)NCCCO)ccc2c2ccc(S(=O)(=O)NCCCO)cc12`, the AC50 is > 42 µM (inactive).

As for `Cc1ccc(N2CN(CCc3ccccc3)CNC2=S)cc1`, the AC50 is > 42 µM (inactive).

For the compound `Cc1cc(C)c[n+](-c2nc3ccccc3nc2[N-]S(=O)(=O)c2ccc(Br)s2)c1`, the AC50 is > 42 µM (inactive).

With `Cc1cccc(N=C2C(=O)Nc3c(Cl)cccc32)c1`, the AC50 is > 42 µM (inactive).

Regarding `C/C(=N\N1CCN(Cc2ccccc2Cl)CC1)c1ccc([N+](=O)[O-])cc1`, the AC50 was > 42 µM (inactive).

`O=C(O)c1cccc(NC(=O)c2cccc(S(=O)(=O)Nc3cccc([N+](=O)[O-])c3)c2)c1`: the AC50 is > 42 µM (inactive).

As for `O=C(COC(=O)CNC(=O)c1ccc(Cl)cc1)Nc1ncc(C(F)(F)F)cc1Cl`, the AC50 was > 42 µM (inactive).

Regarding `Cc1c(Cl)cccc1NC(=O)Cn1c(CCC(=O)O)ccc1-c1ccccc1`, the AC50 was > 42 µM (inactive).

With `CCC(c1nnnn1C1CCCC1)N1CCN(c2cccc(OC)c2)CC1` (stereo unspecified), the AC50 was > 21 µM (inactive).

`CCCCCCOc1ccc(N2C(=O)CC(N3CCC(C(=O)OCC)CC3)C2=O)cc1` (stereo unspecified): the AC50 was > 42 µM (inactive).

Regarding `CC(NC(=O)c1ccc(Cl)cc1)C(=O)N1CCCCC1` (stereo unspecified), the AC50 is > 42 µM (inactive).

For `CCCOc1ccc(N2C(=O)CC(N3CCC(C(=O)OCC)CC3)C2=O)cc1` (stereo unspecified), the AC50 is > 42 µM (inactive).

Regarding `CC1CC(C)(C)N2C(=O)C3(Nc4ccccc4S3)c3cccc1c32` (stereo unspecified), the AC50 is > 42 µM (inactive).

As for `Cc1nc(NCCN2CCOCC2)c2nnn(Cc3c(F)cccc3Cl)c2n1`, the AC50 was > 42 µM (inactive).

`Cc1cc2c(cc1C)-c1nnc(-c3ccc4ccccc4n3)n1C(C)(C)C2`: the AC50 is > 42 µM (inactive).

Consider `Cc1cc(C)cc(-n2ncc3c2CCCC3NC(=O)c2cc(C)[nH]n2)c1` (stereo unspecified), for which the AC50 is > 42 µM (inactive).

As to `CC(=O)N(C)c1ccc(N2CCOCC2)c2c1C(=O)c1ccccc1C2=O`, the AC50 was > 42 µM (inactive).

On to `O=C(COC(=O)/C=C/c1ccco1)Nc1ncc(C(F)(F)F)cc1Cl`, for which the AC50 is > 42 µM (inactive).

For the compound `CN(C)c1ccc(C(CNS(=O)(=O)c2ccc([N+](=O)[O-])cc2)N2CCOCC2)cc1` (stereo unspecified), the AC50 was > 42 µM (inactive).

Take `Cc1cc(-c2ccccc2)n(-c2ccc(C(=O)NC(C)C)cc2)n1`: the AC50 was > 42 µM (inactive).

`COc1ccc(NC(=O)CN(C)C(=O)c2cc(C)on2)cc1`: the AC50 is > 42 µM (inactive).

Regarding `CCOc1cc(/C=N/NC(=O)C(=O)N/N=C/c2ccc(O)c(OCC)c2)ccc1O`, the AC50 was > 42 µM (inactive).

Consider `CCOC(=O)c1c(N)sc(C(=O)N2CCCC(C(N)=O)C2)c1C` (stereo unspecified), for which the AC50 is > 42 µM (inactive).

In the case of `COc1cc(C)ccc1OCCCOc1ccccc1Br`, the AC50 was > 42 µM (inactive).

For `COc1cc(NC(=O)C2=CC(c3ccco3)=NS(=O)(=O)N2C)cc(OC)c1OC`, the AC50 is > 42 µM (inactive).

On to `CCn1c(SCc2nc3ccccc3[nH]2)nnc1-c1cccnc1`, for which the AC50 was > 42 µM (inactive).

On to `Nc1ccc(S(=O)(=O)NNC(=O)C(=O)NNc2ccccc2)cc1`, for which the AC50 is > 42 µM (inactive).

`CCOC(=O)N1CCN(C(=O)c2ccc3ccccc3c2)CC1`: the AC50 was > 42 µM (inactive).

For the compound `O=C(O)c1cn(Cc2ccccn2)c(=O)c2ccccc12`, the AC50 is > 42 µM (inactive).

As for `COc1cccc(C(=O)NCc2ccc(-c3nc4ccccc4s3)cc2)c1`, the AC50 was > 42 µM (inactive).

For `O=C(CCS(=O)(=O)c1ccc(Br)s1)NCc1ccccc1`, the AC50 is > 42 µM (inactive).

For `O=C1NC2(CCCCO2)CO1` (stereo unspecified), the AC50 is > 42 µM (inactive).

Regarding `COc1ccc(/C=C2/SC(=O)N(NS(=O)(=O)c3ccccc3)C2=S)cc1OC`, the AC50 was > 42 µM (inactive).

Regarding `CCN1C(=NCc2cccc(Cl)c2)N[C@@H](c2cccc(F)c2)C(C(=O)OC)=C1C`, the AC50 was > 42 µM (inactive).

As for `COc1ccc(/C=N\NC(=O)c2cc(OCC(F)(F)F)ccc2OCC(F)(F)F)cc1`, the AC50 was > 42 µM (inactive).

Take `CC/C(=N\Nc1ccc([N+](=O)[O-])cc1)c1ccccc1`: the AC50 is > 42 µM (inactive).

As to `COc1cccc(Cn2cnc3c(NS(=O)(=O)c4cccc(Cl)c4Cl)c(C)c(C)cc32)c1`, the AC50 is > 42 µM (inactive).

Take `CCCCCNC(=O)c1ccc2c(=O)n(CC3CCCO3)c(=O)[nH]c2c1` (stereo unspecified): the concentration at half-maximal activity (AC50) was 7.49 µM.

As to `CCc1nnc(NC(=O)c2cccc(S(=O)(=O)N3CCN(c4ccccc4)CC3)c2)s1`, the AC50 is > 42 µM (inactive).

With `CN(C(=O)COC(=O)c1cc2ccccc2cc1O)c1c(N)n(Cc2ccccc2)c(=O)[nH]c1=O`, the AC50 is > 42 µM (inactive).

For orientation: AC50 means the concentration at which the activity in the assay is half-maximal.
